Legend:
[1] = system: primary mouse mesenchymal stem cells; experiment: Meflin gene (Islr) expression by qPCR after retinoid treatment (Example 4); format: cell-based; conditions: relative expression level, control (DMSO-treated cells) = 1, retinoid 1 μM, 48 hours
Protocol: (§1) The primary human pancreatic stellate cells used are those provided by Dr. Masamune, Tohoku University. The primary mouse mesenchymal stem cells used are those purchased from Cyagen Co., Ltd. Both pancreatic stellate cells and mesenchymal stem cells are considered to be the origin of CAF. As the retinoid, the retinoid contained in SCREEN-WELL Nuclear Receptor ligand library (ENZO) is used. DMEM+10% FBS is used as a culture medium. The cells are seeded in a collagen-coated dish and cultured until they are 100% confluent, and various retinoids are added to a concentration of 1 μM. After 48 hours, cells are harvested, RNA is extracted using RNeasyPLUS KIT (QIAGEN), and cDNA is synthesized using ReverseTra Ace qPCR RT Master Mix (TOYOBO). The expression level of the meflin gene (ISLR and Islr) is measured by qPCR using the Gene expression assay (Thermo Fisher scientific).

[2] = system: primary human pancreatic stellate cells; experiment: Meflin gene (ISLR) expression by qPCR after retinoid treatment (Example 4); format: cell-based; conditions: relative expression level, control (DMSO-treated cells) = 1, retinoid 1 μM, 48 hours
Protocol: as §1

[3] = system: primary mouse mesenchymal stem cells; experiment: Islr, Acta2, Col1a1 and Col3a1 expression by qPCR after retinoid treatment (Example 5); format: cell-based; conditions: vs control (DMSO), 48 hours after addition; for expression level of meflin gene (Islr): FIG. 27(A); for expression level of actin gene (Acta2): FIG. 27(B); for expression level of type I collagen gene (Col1a1): FIG. 27(C); for expression level of type III collagen gene (Col3a1): FIG. 27(D)
Protocol: as §1
The same method is performed as in the experiment using the primary mouse mesenchymal stem cells in Example 4. ATRA, AM80 and AM580 are used as retinoids. The expression levels of the meflin gene (Islr), actin gene (Acta2), type I collagen gene (Col1a1) and type III collagen gene (Col3a1) are measured by qPCR.

[4] = system: mouse pancreatic cancer cells mT5; experiment: AM80 alone in mice subcutaneously transplanted with mT5 (Example 6); format: in vivo
Excerpt: Pancreatic cancer cell mT5, which was distributed by Dr. David Tuveson, Cold Spring Harbor Laboratory, is used. mT5 is a pancreatic cancer cell established from a pancreatic tumor developed in KPC mice, which is a pancreatic cancer spontaneous onset model (Organoid models of human and mouse ductal pancreatic cancer. Cell. 2015 Jan. 15; 160 (1-2)): 324-38. Doi: 10.1016/j. cell. 2014.12.021. Epub 2014 Dec. 31.).
C57BL/6J female mice are subcutaneously transplanted with mouse pancreatic cancer cells mT5 (1.0×10^6 cells). Eight days later (Day 8), AM80 is orally administered for 15 days to mice in which tumor formation was confirmed. Depending on the dose of AM80 (0.1 mg/kg/day, 0.5 mg/kg/day, 1 mg/kg/day and 3 mg/kg/day), a total of 5 groups, namely, four AM80 administration groups and a control group (DMSO administration) are set up (n=5 in each group). Body weight and tumor volume are measured before the start of the AM80 administration (Day 8), Day 11, Day 15, Day 18 and Day 22. On Day 22, mice are euthanized, tumors are removed to prepare tissue specimens, the in situ hybridization (ISH) is performed to detect the expression of the meflin gene (Islr) and the actin gene (Acta2), and then the number of positive signals is counted for each. Furthermore, a tissue specimen of the tumor is prepared, immunostaining is performed with an anti-CD31 antibody to stain CD31, which is a marker for vascular endothelial cells, and the vascular lumen area is measured.

[5] = system: mouse pancreatic cancer cells mT5; experiment: Collagen arrangement in tumor stroma by second harmonic microscope (Example 16); format: in vivo; conditions: tamibarotene 3.0 mg/kg oral once a day for 7 days from Day 8; vs control (DMSO); Day 15
Protocol: C57BL/6J female mice are subcutaneously transplanted with mouse pancreatic cancer cells mT5 (1.0×10^6 cells). Eight days later (Day 8), the mice are divided into two groups, a control group and a tamibarotene administration group (AM80 group) to ensure equal tumor volume (n=5 in each group). In the AM80 group, tamibarotene (3.0 mg/kg) is orally administered once a day for 7 days from Day 8. In the control group, DMSO is orally administered instead of tamibarotene. On Day 15, mice are euthanized, and tumors are removed to prepare tissue specimens. Eight to sixteen images are randomly selected from the tumor tissue specimen, the collagen arrangement is measured with a second harmonic microscope, and the curvature (linearity) is analyzed.

[6] = system: mouse pancreatic cancer cells mT5; experiment: Tamibarotene and gemcitabine in mice transplanted with mT5 (Example 7); format: in vivo; conditions: tamibarotene 3.0 mg/kg oral once a day for 17 days from Day 8; gemcitabine 50 mg/kg i.p. Day 15, 18, 21; to Day 24
Protocol: C57BL/6J female mice are subcutaneously transplanted with mouse pancreatic cancer cells mT5 (1.0×10^6 cells). […] In the Gem+AM80 group, tamibarotene (3.0 mg/kg) is orally administered once a day for 17 days from Day 8. In addition, in the Gem group and the Gem+AM80 group, gemcitabine (50 mg/kg) is intraperitoneally administered once each on Day 15, Day 18 and Day 21. In the control group, DMSO is orally administered instead of tamibarotene, and saline is intraperitoneally administered instead of gemcitabine. Tumor volume is measured before start of the AM80 administration (Day 8), Day 12, Day 15, Day 18, Day 21 and Day 24.

[7] = AM80 3 mg/kg/day vs control group, tumor removed Day 22

## C/C(=C\c1ccc(C(=O)O)cc1)c1ccc2c(c1)C(C)(C)CCC2(C)C [TTNPB]
[1]
  ISLR expression level (mean value): 5.183
[2]
  ISLR expression level (mean value): 15.94

## CC1=C(/C=C/C(C)=C/C=C/C(C)=C/C(=O)O)C(C)(C)CCC1O (stereo not shown) [4-Hydroxyretinoic acid, 4-hydroxyretinoic acid]
[1]
  ISLR expression level (mean value): 1.912
[2]
  ISLR expression level (mean value): 3.264

## COc1ccc(-c2ccc3cc(C(=O)O)ccc3c2)cc1C12CC3CC(CC(C3)C1)C2 [Adapalene, adapalene]
[1]
  ISLR expression level (mean value): 5.428

## CC(=O)OC/C=C(C)/C=C/C=C(C)/C=C/C1=C(C)CCCC1(C)C [Retinyl acetate, retinyl acetate]
[2]
  ISLR expression level (mean value): 3.29

## CC1(C)CCC(C)(C)c2cc(NC(=O)c3ccc(C(=O)O)cc3)ccc21 [AM80, tamibarotene]
[3]
  expression level of meflin gene (Islr): high
  expression level of actin gene (Acta2): low
  expression level of type I collagen gene (Col1a1): low
  expression level of type III collagen gene (Col3a1): low
[4]; [7]
  number of dots of the Acta2 positive signal per high-magnification field (ISH): significantly lower
  number of dots of the Islr positive signal per high-magnification field (ISH): significantly higher
  vascular lumen area (anti-CD31 immunostaining): significantly higher
[4]; AM80 0.1, 0.5, 1 and 3 mg/kg/day oral for 15 days from Day 8, vs control (DMSO), Day 8-22
  tumor volume: does not suppress the growth
[4]; AM80 0.1-3 mg/kg/day oral for 15 days
  body weight: does not affect the body weight
[5]
  curvature (linearity) of collagen: reducing the linearity of collagen

## COc1cc(C)c(/C=C/C(C)=C/C=C/C(C)=C/C(=O)O)c(C)c1C [Acitretin]
[1]
  ISLR expression level (mean value): 7.659
[2]
  ISLR expression level (mean value): 47.59

## CC1(C)CCC(C)(C)c2cc(C(=O)Nc3ccc(C(=O)O)cc3)ccc21 [AM580]
[1]
  ISLR expression level (mean value): 5.295
[3]
  expression level of meflin gene (Islr): high
  expression level of actin gene (Acta2): low
  expression level of type I collagen gene (Col1a1): low
  expression level of type III collagen gene (Col3a1): low
[2]
  ISLR expression level (mean value): 3625.326

## CC1=C(/C=C/C(C)=C\C=C\C(C)=C\C(=O)O)C(C)(C)CCC1 [9-cis Retinoic acid, 9-cis-retinoic acid]
[2]
  ISLR expression level (mean value): 4.894

## Nc1ccn([C@@H]2O[C@H](CO)[C@@H](O)C2(F)F)c(=O)n1 [Gem, gemcitabine]
[6]
  tumor growth (tumor volume): more significantly suppresses the tumor growth than the control group

## CC(C)(c1ccc(OCC2CO2)cc1)c1ccc(OCC2CO2)cc1 (stereo not shown) [BADGE, bisphenol A diglycidyl ether]
[2]
  ISLR expression level (mean value): 5089.576

## CC1=C(/C=C/C(C)=C/C=C/C(C)=C\C(=O)O)C(C)(C)CCC1 [13-cis Retinoic, 13-cis-retinoic acid]
[2]
  ISLR expression level (mean value): 7.252

## CC1=C(/C=C/C(C)=C/C=C/C(C)=C/C(=O)O)C(C)(C)CCC1 [ATRA, all-trans retinoic acid]
[1]
  ISLR expression level (mean value): 1.693
[3]
  expression level of meflin gene (Islr): high
  expression level of actin gene (Acta2): low
  expression level of type I collagen gene (Col1a1): low
  expression level of type III collagen gene (Col3a1): low
[2]
  ISLR expression level (mean value): 217.5011
